Series [1] concerns influenza virus A/PR/8/34. The class given is cell-based.
In series [2] the test system is A/H1N1 (A/PR/8/34). Briefly: microbe, parasite or virus in culture. The class given is cell-based, influenza A virus. The settings on record: read-out: Antiviral EC50 A/H1N1 (A/PR/8/34).
In series [3] the test system is MDCK cells. Conditions: dog.
In series [4] the test system is A/FM/1/47 (A/H1N1). Briefly: microbe, parasite or virus in culture. The class given is cell-based. The settings on record: Influenza A virus, H1N1, MDCK, read-out: Antiviral activity (EC50) A/FM/1/47.
In series [5] the test system is A/Ishikawa/7/82 (A/H3N2). Description: microbe, parasite or virus in culture. The class given is cell-based. Conditions: Influenza A virus, read-out: Antiviral activity (EC50) A/Ishikawa/7/82.
The subject of series [6] is A/H3N2 (A/HK/7/87). Briefly: microbe, parasite or virus in culture. The class given is cell-based.
The test system of series [7] is endosomal pH. The class given is cell-based.
For series [8], the system named is A/Ned/378/05 (A/H1N1). Description: microbe, parasite or virus in culture. The class given is cell-based. The settings on record: Influenza A virus, H1N1, MDCK, read-out: Antiviral activity (EC50) A/Ned/378/05.
Series [9] has as its system A/Victoria/3/75 (A/H3N2). Description: microbe, parasite or virus in culture. The class given is cell-based. Conditions: Influenza A virus, H3N2, read-out: EC50 A/Victoria/3/75.
Series [10] is described as follows: in vitro. Conditions: dog, Cytotoxicity CC50.
Series [11] concerns the target A/M2 wt channel (Influenza A virus, UniProt P0DOF5). Description: biochemical. Conditions: pH 5.5, read-out: Activity against A/M2 wt channel, Inhibition at 100 μM (%).
The mark [12] stands for this setting: Influenza A virus, H1N1|PR/8, MDCK.
[13] abbreviates: Influenza A virus, H3N2, MDCK, read-out: Antiviral EC50 A/H3N2 (A/HK/7/87).
Where [14] appears, read: Influenza A virus, H3N2, MDCK, read-out: Antiviral activity (EC50) A/HK/7/87.

“And” between values parts separate entries of the source, which are not always exact repeats. Equal values may be shown once. Read-outs that look alike come from different tables or passages of the source.

Sequence of A/M2 wt channel (P0DOF5 whole entry, looked up): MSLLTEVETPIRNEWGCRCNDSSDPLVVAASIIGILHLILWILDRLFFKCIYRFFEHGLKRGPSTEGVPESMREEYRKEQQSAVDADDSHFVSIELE

Take `NC12CC3CC(CC(C3)C1)C2` [Amantadine, amantadine]: in series [1], the “EC99 (2-log10 reduction in virus yield)” value is 179 μM and 179 ± 53 μM. In addition, the EC50 in [2] (setting [12]) came out at 53 µM; in series [4], 5.1 ± 2.4 µM; in [5] it was 11 ± 8 µM; in [6] (setting [13]) it was 3.4 µM; in [6] (setting [14]), 3.4 ± 1.7 µM; in series [8], 2 µM. Also, the “Cytotoxicity (MCC)” value in series [3] amounted to 500 µM. In addition, the “Effect on acridine orange staining pattern” value in series [7] (500 μM) is listed as “neither of the polycyclic amines tested”.
A word on the CC50: it is the concentration at which the toxic effect on the cells reaches its halfway point. The low end stands for harm at low concentration, the high end for better tolerance by the cells. As to `C1=CC2C3C4C5C=CC4C24CNCC54C13` [Compound 3, 3-azahexacyclo[7.6.0.0^1,5.0^5,12.0^6,10.0^11,15]pentadeca-7,13-diene], the EC50 in series [2] (setting [12]) was 14 µM; in series [2], 16 µM; in series [9], greater than 100 µM; in [6] (setting [13]), 16 µM; in [6] (read-out: Antiviral EC50 A/H3N2 (A/HK/7/87)), 14 µM. Also, in [10], the CC50 was greater than 100 µM.
Turning to `CCC(CC)O[C@@H]1C=C(C(=O)O)C[C@H](N)[C@H]1NC(C)=O` [Oseltamivir carboxylate], the “Cytotoxicity (MCC)” value in series [3] was greater than 100 µM. The EC50 in [4] amounted to 16 ± 2 µM; in series [5], 3 ± 1 µM; in series [6] (setting [14]) it was 29 ± 5 µM; in series [8] it was 1.5 ± 0.8 µM.
For `NC(=O)c1ncn([C@@H]2O[C@H](CO)[C@@H](O)[C@H]2O)n1` [Ribavirin], the “EC99 (2-log10 reduction in virus yield)” value in series [1] amounted to 11 ± 1 μM. In addition, the “Cytotoxicity (MCC)” value in series [3] was greater than 100 µM. The EC50 in series [4] was 10 ± 1 µM; in [5] it was 8.8 ± 0.3 µM; in [6] (setting [14]), 8.6 ± 0.4 µM; in series [8], 7.6 ± 1 µM.
As for `CC(N)C12CC3CC(CC(C3)C1)C2` (centres unmarked) [Rimantadine, rimantadine], in series [1], the “EC99 (2-log10 reduction in virus yield)” value is 48 μM and 48 ± 5 μM. Besides, the EC50 in [2] (setting [12]) amounted to 4.6 µM; in [4], 1.9 ± 1.1 µM; in series [5], 0.45 ± 0.15 µM; in [6] (setting [13]), 0.17 µM; in [6] (setting [14]), 0.17 ± 0.08 µM; in series [8], 0.5 ± 0.22 µM. Further, in [3], the “Cytotoxicity (MCC)” value is greater than 100 µM. Besides, the “Cytotoxicity MCC (minimum cytotoxic concentration)” value in series [3] came out at 500 µM. For the same molecule, in [11], the inhibition at 100 µM stood at 91.4 ± 0.8%. Also, the CC50 in [10] was 230 µM.
With `CC(=O)N[C@H]1[C@H]([C@H](O)[C@H](O)CO)OC(C(=O)O)=C[C@@H]1N=C(N)N` [Zanamivir], the “Cytotoxicity (MCC)” value in series [3] was greater than 100 µM. In addition, the EC50 was found to be 5 ± 1.6 µM in [4], 8.7 ± 3.8 µM in series [5], 1.2 ± 0.9 µM in series [6] (setting [14]) and 1.7 ± 0.5 µM in series [8].
With `CO/C1=C\C(C)=C\[C@@H](C)[C@@H](O)[C@@H](C)C/C(C)=C/C=C/[C@H](OC)[C@@H]([C@@H](C)[C@@H](O)[C@H](C)[C@@]2(O)C[C@@H](O)[C@H](C)[C@@H](C(C)C)O2)OC1=O` [bafilomycin A1], in series [7], the “Effect on acridine orange lysosomal red fluorescence” value was “completely inhibited”.
On to `CCN(CC)CCCC(C)Nc1ccnc2cc(Cl)ccc12` (centres unmarked) [chloroquine], for which the “Effect on acridine orange lysosomal red fluorescence” value in series [7] was “a decrease in lysosomal pH and a shift to yellow fluorescence”.

The values above are taken from publication PMC7114147 (Antiviral Research, 2013).
